Data set [1] concerns Human Breast Cancer Cells (MCF-7). Put plainly: Cell growth inhibition by direct cell counting, MCF-7. In kind it is cell-based. As to conditions: read-out: IG50 MCF-7. Here is the method: (§1) Cells were taken out carefully from liquid nitrogen (Frozen pipes), and the cell freezing medium was thawed rapidly in water bath at 37° C. in order to rapidly pass through the temperature range of 0 to 5° C. within which the cell is easily damaged. Cell suspension was sucked with pipette gun and put it into centrifugal tubes under sterile condition, then was centrifuged for 3 min at 1300 r/min. The supernatant was gently discarded, and then added with a fresh medium to pipette and mix the cells. Finally, the cells were transferred into culture flasks, and cultured in a carbon dioxide incubator. The medium was changed once after 24 h.
(§2) After resuscitation, the cells were passed for 2-3 generations till they became stable, then they were used for the experiments. Each passage was based on the standard that all cells were spread over the bottoms of culture flasks.
(§3) Cell suspensions of a certain density (5×10^4 cells/mL) were plated at 24-well plate, 2 mL/well. Different concentration of drugs were added thereto, and incubated or some time. Then, cells were counted under the microscope. The ratio of total number of cells in test group to the total number of cells in control group is the cell growth inhibition rate under the concentration condition. The total number of cells in cell suspension, which were treated by drugs, could be counted by blood count board. Inhibition rate was calculated using the formula: […]
(§4) According to cell growth inhibition rate of each concentration of drugs, half inhibitory concentration could be calculated. (IG50 is the drug concentration, when cell growth inhibition rate was 50%.)
(§5) 7) The Results of the Growth Inhibitory Activity of the Compounds on Human Breast Cancer Cells (MCF-7) and Human Multidrug Resistant Breast Cancer Cells (MCF-7/Adr) were Listed in Table 3.

Data set [2] has as its system Human Multidrug Resistant Breast Cancer Cells (MCF-7/Adr). Briefly: Cell growth inhibition by direct cell counting, MCF-7/Adr. The format is cell-based. To be noted: read-out: IG50 MCF-7/Adr. Here is the method: as §1, §2, §3, §4, §5
Data set [3] concerns Murine leukemia cells (P388). Briefly: Cell growth inhibition by direct cell counting, P388. In kind it is cell-based. As to conditions: read-out: IG50 P388. Here is the method: as §1
(§6) Human leukemia cells (HL-60) were cultured in RPMI1640 medium containing 10% (v/v) fetal bovine serum, 100 U/mL penicillin and 100 μg/mL streptomycin. Murine leukemia cells (P388) and murine multidrug resistant leukemia cells (P388/Adr) were cultured in Eagle's minimum essential medium (MEM) containing 10% (v/v) fetal bovine serum, 100 U/mL penicillin and 100 μg/mL streptomycin. All of the above cell lines were incubated in 37° C. incubator with 5% carbon dioxide saturated humidity.
as §2, §3, §4
(§7) 6) The Results of the Growth Inhibitory Activity of the Compounds on Murine Leukemia Cells (P388) and Murine Multidrug Resistant Leukemia Cells (P388/Adr) were Listed in Table 2.

Data set [4] has as its system murine multidrug resistant leukemia cells (P388/Adr). Put plainly: Cell growth inhibition by direct cell counting, P388/Adr. The format is cell-based. To be noted: read-out: IG50 P388/Adr. Here is the method:
as §1, §6, §2, §3, §4, §7

In data set [5] the test system is Human leukemia cells (HL-60). Put plainly: Cell growth inhibition by direct cell counting, HL-60. To be noted: HL-60 cells, drug concentration at 50% cell growth inhibition, read-out: IG50 (the source's name). The format is cell-based. Here is the method:
as §1, §6, §2, §3, §4

Setting [6] is: Homo sapiens, MCF7, MCF-7 cells.
[7] abbreviates: Homo sapiens, NCI/ADR-RES, MCF-7/Adr multidrug resistant cells.
The mark [8] stands for this setting: MCF-7/Adr multidrug resistant cells.

Read-outs that look alike come from different tables or passages of the source.

The source of these data is patent publication US9718837B2, “Nitrogen-containing heterocyclic ring substituted dihydroartemisinin derivatives and use thereof” (Shenyang Pharmaceutical University, priority 2013, dated 2017).

Take `C[C@H]1[C@@H](Oc2ccc(Cn3ccnc3)cc2)O[C@@H]2O[C@]3(C)CC[C@H]4[C@H](C)CC[C@@H]1[C@@]24OO3` [Example 2, (10S)—O-[4-((imidazol-1-yl)methyl)phenyl]-dihydroartemisinin]: the melting point was 65 to 67 °C. Moreover, in data set [1] (setting [6]), the IC50 worked out at 211 nM. Also, in data set [2] (setting [7]), the IC50 is 631 nM.

Take `C[C@H]1[C@@H](Oc2ccc(CN3CCCCC3)cc2)O[C@@H]2O[C@]3(C)CC[C@H]4[C@H](C)CC[C@@H]1[C@@]24OO3` [Example 5, (10S)—O-[4-((piperidin-1-yl)methyl)phenyl]-dihydroartemisinin]: the IC50 was found to be 880 nM in data set [3] (Mus musculus), 804 nM in data set [4] (Mus musculus) and 228 nM in data set [5] (Homo sapiens).

As for `CC1CCC2C(C)[C@@H](Oc3ccc(CN4CCC(N5CCCCC5)CC4)cc3)OC3OC4(C)CCC1C32OO4` (stereo partly drawn) [Example 6, (10S)—O-[4-[(4-(piperidinyl)piperidin-1-yl)methyl]phenyl]-dihydroartemisinin], in data set [5], the IC50 was found to be 79 nM.

As to `C[C@H]1[C@@H](Oc2ccc(CN3CCN(C)CC3)cc2)O[C@@H]2O[C@@]3(C)CC[C@H]4[C@H](C)CC[C@@H]1[C@@]24OO3` [Example 7, (10S)—O-[4-((4-methylpiperazin-1-yl)methyl)phenyl]-dihydroartemisinin], the IC50 in data set [5] is 120 nM.

Consider `CCN1CCN(Cc2ccc(O[C@H]3O[C@@H]4O[C@@]5(C)CC[C@H]6[C@H](C)CC[C@@H]([C@H]3C)[C@@]46OO5)cc2)CC1` [Example 8, (10S)—O-[4-((4-ethylpiperazin-1-yl)methyl)phenyl]-dihydroartemisinin], for which, in data set [5], the IC50 amounted to 83 nM.

Consider `CC1CCC2C(C)[C@@H](Oc3ccc(CN4CCN(C(C)C)CC4)cc3)OC3OC4(C)CCC1C32OO4` (stereo partly drawn) [Example 9, (10S)—O-[4-((4-isopropylpiperazin-1-yl)methyl)phenyl]-dihydroartemisinin], for which, in data set [5], the IC50 worked out at 71 nM.

`CC1CCC2C(C)[C@@H](Oc3ccc(CN4CCN(c5ccccc5)CC4)cc3)OC3OC4(C)CCC1C32OO4` (stereo partly shown) [Example 10]: the IC50 in data set [3] amounted to 70 nM; in data set [4], 88 nM; in data set [5], 33 nM.

Regarding `CC1CCC2C(C)C(Oc3ccc(CN4CCN(Cc5ccccc5)CC4)cc3)OC3OC4(C)CCC1C32OO4` [Example 16, 10-O-[4-[(4-benzylpiperazin-1-yl)methyl]phenyl]-(10S)-dihydroartemisinin], the IC50 in data set [5] stood at 105 nM.

As to `CC1CCC2C(C)[C@@H](Oc3ccc(CN4CCN(CC=Cc5ccccc5)CC4)cc3)OC3OC4(C)CCC1C32OO4` (stereo partly drawn) [Example 17, 10-O-[4-[(4-cinnamylpiperazin-1-yl)methyl]phenyl]-(10S)-dihydroartemisinin], in data set [5], the IC50 came to 59 nM.

As for `C[C@H]1[C@@H](Oc2ccc(/C=C/C(=O)N3CCCC3)cc2)O[C@@H]2O[C@]3(C)CC[C@H]4[C@H](C)CC[C@@H]1[C@@]24OO3` [Example 20, (10S)—O-{4-[3-oxo-3-(pyrrolidin-1-yl)-1-(E)-propen-1-yl]phenyl}-dihydroartemisinin], the melting point lay in the range of 165 to 167 °C. For the same compound, the IC50 in data set [1] (setting [6]) was found to be 123 nM.

With `C[C@H]1[C@@H](Oc2ccc(/C=C/C(=O)N3CCN(C)CC3)cc2)O[C@@H]2O[C@@]3(C)CC[C@H]4[C@H](C)CC[C@@H]1[C@@]24OO3` [Example 24], the IC50 turned out to be 299 nM in data set [3] and 918 nM in data set [4].

Regarding `CCN1CCN(C(=O)/C=C/c2ccc(O[C@H]3OC4OC5(C)CCC6C(C)CCC(C3C)C46OO5)cc2)CC1` (stereo partly drawn) [Example 25, (10S)—O-{4-[3-oxo-3-(4-ethylpiperazin-1-yl)-1-(E)-propen-1-yl]phenyl}-dihydroartemisinin], the IC50 in data set [3] turned out to be 152 nM; in data set [4] it was 223 nM.

`CC1CCC2C(C)[C@@H](Oc3ccc(/C=C/C(=O)N4CCN(c5ccccc5)CC4)cc3)OC3OC4(C)CCC1C32OO4` (stereo partly drawn) [Example 26, (10S)—O-{4-[3-oxo-3-(4-phenylpiperazin-1-yl)-1-(E)-propen-1-yl]phenyl}-dihydroartemisinin]: the values for the IC50 in data set [3] and in data set [4] were 145 nM and 153 nM, respectively.

`C[C@H]1[C@@H](Oc2ccc(/C=C/C(=O)Oc3ccc(/C=C/C(=O)N4CCCCC4)cc3)cc2)O[C@@H]2O[C@]3(C)CC[C@H]4[C@H](C)CC[C@@H]1[C@@]24OO3` [Example 31, 4-[(10S)-dihydroartemisinin-10-O-yl]phenyl-acrylic acid-4-[3-oxo-3-(piperidin-1-yl)-1-(E)-propen-1-yl]phenyl ester] yielded a melting point of 160 to 163 °C. In data set [1] (setting [6]), the IC50 worked out at 63 nM.

On to `C[C@H]1[C@@H](Oc2ccc(CC(=O)N3CCCC3)cc2)O[C@@H]2O[C@]3(C)CC[C@@H]4[C@H](C)CC[C@@H]1[C@@]24OO3` [Example 33, (10S)—O-{4-[2-(pyrrolidin-1-yl)-2-oxoethyl]phenyl}-dihydroartemisinin], for which the melting point was 73 to 74 °C. For the same compound, the IC50 in data set [1] (setting [6]) was 3230 nM. Besides, the IC50 in data set [2] (setting [7]) amounted to 122 nM.

In the case of `CC1CCC2C(C)[C@@H](Oc3ccc(CC(=O)N4CCN(C5CCCCC5)CC4)cc3)OC3OC4(C)CCC1C32OO4` (stereo partly drawn) [Example 46, (10S)—O-{4-[2-(4-cyclohexylpiperazin-1-yl)-2-oxoethyl]phenyl}-dihydroartemisinin], the IC50 in data set [1] (MCF-7 cells) stood at 1120 nM; in data set [2] (setting [8]), 98 nM.

In turn, `C[C@H]1[C@@H](Oc2ccc(CC(=O)Nc3ccccc3)cc2)O[C@@H]2O[C@]3(C)CC[C@@H]4[C@H](C)CC[C@@H]1[C@@]24OO3` [Example 47, (10S)—O-[4-(2-phenylamino-2-oxoethyl)phenyl]-dihydroartemisinin] had a melting point of 172 to 173 °C. Also, in data set [1] (setting [6]), the IC50 is 1550 nM. Further, the IC50 in data set [2] (setting [7]) stood at 9.66 nM.

As for “(10S)—O-{4-[2-[4-(pyridin-2-yl)piperazin-1-yl]-2-oxoethyl]phenyl}-dihydroartemisinin [Example 44]”, the IC50 came out at 1490 nM in data set [1] and 180 nM in data set [2].

Consider “(10S)—O-{4-[2-[4-(pyrimidin-2-yl)piperazin-1-yl]-2-oxoethyl]phenyl}-dihydroartemisinin [Example 45]”, for which the IC50 in data set [1] (MCF-7 cells) is 1490 nM; in data set [2] (setting [8]), 110 nM.

By melting point is commonly meant the temperature, or range, at which the solid turns liquid.
